The test system of data set [1] is isolated arterial rings. The settings on record: rats; read-out: EC50, contraction of isolated arterial rings; cited from earlier work.
Data set [2] deals with isolated arterial rings. The settings on record: humans; read-out: EC50, contraction of isolated arterial rings; cited from earlier work.
Data set [3] deals with streptozotocin-induced diabetic rats. The conditions noted are these: long-term treatment; cited from earlier work.
For data set [4], the target named is T1, rat GPR14 (U-II receptor) (Rattus norvegicus, UniProt P49684).
T1 construct: expressed in transfected cells
T1 sequence (P49684 1-386): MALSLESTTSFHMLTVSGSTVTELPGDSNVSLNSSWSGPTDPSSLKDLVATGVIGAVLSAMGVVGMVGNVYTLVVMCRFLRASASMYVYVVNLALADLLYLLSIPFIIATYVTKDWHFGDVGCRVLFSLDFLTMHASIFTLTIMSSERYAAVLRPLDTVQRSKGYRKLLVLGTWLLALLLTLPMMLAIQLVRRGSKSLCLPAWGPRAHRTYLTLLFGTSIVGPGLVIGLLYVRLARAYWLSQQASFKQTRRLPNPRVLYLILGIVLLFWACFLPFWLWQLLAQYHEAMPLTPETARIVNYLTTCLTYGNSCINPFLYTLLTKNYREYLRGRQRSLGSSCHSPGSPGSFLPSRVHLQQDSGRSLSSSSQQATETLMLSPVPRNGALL
The settings on record: agonist; calcium mobilization; read-out: FLIPR EC50; cited from earlier work. Background: A change in cytosolic calcium serves as a functional read-out for many receptors and channels.

The target of data set [5] is T2, (Rattus norvegicus, UniProt P49684).
T2 sequence (P49684 1-386): T1 sequence (P49684 1-386)
The settings on record: read-out: rU-II Ki; cited from earlier work.

A further data set has as its target T3, Human UII receptors (Homo sapiens, UniProt Q9UKP6).
T3 construct: host or cells: Human Skeletal Muscle Myoblasts (HSMM), intact adherent cells
T3 sequence (Q9UKP6 1-389): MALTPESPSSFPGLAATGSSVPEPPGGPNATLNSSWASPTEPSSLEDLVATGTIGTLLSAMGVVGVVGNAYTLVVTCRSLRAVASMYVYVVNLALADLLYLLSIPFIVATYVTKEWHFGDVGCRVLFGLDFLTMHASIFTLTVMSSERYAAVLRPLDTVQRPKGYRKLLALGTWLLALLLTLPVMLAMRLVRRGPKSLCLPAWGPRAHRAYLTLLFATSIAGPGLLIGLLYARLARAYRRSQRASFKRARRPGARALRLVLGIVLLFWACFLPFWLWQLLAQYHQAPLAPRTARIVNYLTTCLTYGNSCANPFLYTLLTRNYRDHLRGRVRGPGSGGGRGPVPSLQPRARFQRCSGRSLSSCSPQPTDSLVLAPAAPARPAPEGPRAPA
As to the kind of experiment: Human radioligand binding assay, (125I)-U-II on HSMM. The settings on record: 0.150 nM (125I)-U-II, intact Human Skeletal Muscle Myoblasts, 3 hrs, 25° C.; read-out: Ki.

Data set [6] concerns the target T1, rat GPR14 (U-II receptor). Put plainly: Calcium flux assay (FLIPR). The settings on record: Inhibition of acetyl-cyclic[Cys-Phe-Trp-Lys-(2-Nal)-Cys]-NH2 (1 nM) induced Ca2+ mobilization (FLIPR) in CHO cells transfected with rat UII receptor; 5 min incubation. Type of data set: cell-based. In a few lines:
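Stable CHO cell line expressing cloned rat U-II receptor, seeded 24 h before assay, loaded with FLIPR calcium dye in HBSS/20 mM HEPES/0.1% BSA/2.5 mM probenecid, pH 7.4, for 1 hr at 37° C. Calcium mobilization read at room temperature (23° C.).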

Where two headings read alike, the source gives them in different places.

For “AGTAD-cyclo(CFWKYC)-V [Goby U-II, Urotensin-II isolated from the urophysis of the goby fish as a 12-mer]”, the EC50 with isolated arterial rings [1] and in the data set with isolated arterial rings [2] was below 1 nM throughout.

`Cc1cc(NC(=O)NCCN2CCC(O)(Cc3ccccc3)CC2)c2ccccc2n1` [palosuran]: in data set [3], the “development of proteinuria and renal damage” value is “delayed the development of proteinuria and renal damage”; the “glycemia, glycosylated hemoglobin, and serum lipids” value was “slowed the increase in glycemia, glycosylated hemoglobin, and serum lipids”; the insulin entry is recorded as “increased insulin”; the renal blood flow entry is recorded as “increased renal blood flow”. Also, in data set [3], the survival entry is given as “improved survival”.

For `CN(C)C(=O)C1(c2ccc(Cl)cc2)CCN(CCN2C(=O)CCc3ccccc32)CC1`, the melting point (in general, the temperature of the solid-liquid transition) was 243 to 245 °C.

“acetyl-cyclic[Cys-Phe-Trp-Lys-(2-Nal)-Cys]-NH2 [(Ac)-CFWK(2-NaI)C—NH2, agonist cyclic peptide used to induce Ca2+ mobilization in the FLIPR assay]”: the concentration for a half-maximal effect (EC50) (in general, the midpoint of the concentration-response curve) in data set [4] was 0.54 ± 0.2 nM. Also, the inhibition constant Ki – broadly, the equilibrium dissociation constant of an inhibitor or competing ligand from its target – in data set [5] is 0.12 ± 0.05 nM.

Regarding `O=C(NCCCCCNC(=O)c1cc(Cl)ccc1C1CCN(CCN2C(=O)COc3ccccc32)CC1)NCCc1ccccc1` [Cpd 82, 5-chloro-2-{1-[2-(3-oxo-2,3-dihydro-benzo[1,4]oxazin-4-yl)-ethyl]-piperidin-4-yl}-N-[5-(3-phenethyl-ureido)-pentyl]-benzamide], on Human UII receptors, the Ki was found to be 120 nM. In addition, the IC50 (as a rule, the concentration needed to halve the response being measured) in data set [6] was determined as 170 nM.

Turning to `O=C(NCCc1ccc(Br)cc1)c1ccccc1C1CCN(CCN2C(=O)COc3ccccc32)CC1` [Cpd 34, N-[2-(4-bromo-phenyl)-ethyl]-2-{1-[2-(3-oxo-2,3-dihydro-benzo[1,4]oxazin-4-yl)-ethyl]-piperidin-4-yl}-benzamide], the Ki on Human UII receptors is 620 nM. Also, the IC50 in data set [6] stood at 3000 nM.

On to `CC(C)(C)OC(=O)N1CCC(CNC(=O)c2ccccc2C2CCN(CCN3C(=O)COc4ccccc43)CC2)CC1` [Cpd 50, 4-[(2-{1-[2-(3-oxo-2,3-dihydro-benzo[1,4]oxazin-4-yl)-ethyl]-piperidin-4-yl}-benzoylamino)-methyl]-piperidine-1-carboxylic acid tert-butyl ester], for which the Ki on Human UII receptors stood at 430 nM. Moreover, in data set [6], the IC50 was determined as 2500 nM.

The record behind these values is patent publication US8759342B2, “Benzo[1,4]oxazin-3-one, benzo[1,4]thiazin-3-one and quinolin-2-one urotensin II receptor antagonists” (Janssen Pharmaceutica NV, priority 2006, dated 2014).
